{"source": "patent US9428465B2", "about": "“Acid ceramidase inhibitors and their use as medicaments” (FONDAZIONE ISTITUTO ITALIANO DI TECHNOLOGIA, priority 2012, dated 2016)", "key": {"[1]": {"biological_target": "human acid ceramidase (hAC) (Homo sapiens (Human), UniProt Q13510)", "sequence (Q13510 143-395)": "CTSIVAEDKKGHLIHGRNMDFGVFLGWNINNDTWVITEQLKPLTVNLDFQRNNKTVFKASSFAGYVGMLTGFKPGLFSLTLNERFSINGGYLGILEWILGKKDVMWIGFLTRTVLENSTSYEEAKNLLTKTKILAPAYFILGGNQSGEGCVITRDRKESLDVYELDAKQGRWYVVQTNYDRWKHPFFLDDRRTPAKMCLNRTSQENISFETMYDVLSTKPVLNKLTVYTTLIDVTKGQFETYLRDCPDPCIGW", "sequence (Q13510 22-142)": "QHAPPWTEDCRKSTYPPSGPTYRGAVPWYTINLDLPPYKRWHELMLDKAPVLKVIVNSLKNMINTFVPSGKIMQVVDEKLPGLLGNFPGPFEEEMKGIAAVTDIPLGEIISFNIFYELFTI", "assay": "Human acid ceramidase (hAC) activity assay, UPLC/MS of lauric acid", "format": "biochemical", "conditions": "human acid ceramidase, 50 μM N-lauroyl ceramide, pH 4.5", "protocol": "Human acid ceramidase (hAC) cDNA was purchased from Open Biosystem (clone ID 3923451) and subcloned in the mammalian expression vector pCDNA3.1, containing the neomycin resistance gene. The cell line HEK293 was transfected with hAC-pCDNA3.1 construct using JetPEI reagent (Polypus Transfection™, Illkirch, FR) following the manufacturer instructions. A stable cell line of hAC-overexpressing HEK293 was generated by selection with G418 (1 mg/ml) and cell clones were derived by limited dilution plating. hAC-expressing clones were analyzed by western blot.\nHek293 cells overexpressing hAC were suspended in 20 mM Tris HCl (pH 7.5) containing 0.32M sucrose, sonicated and centrifuged at 800×g for 15 min at 4° C. The supernatants were centrifuged again at 12,000×g for 30 min at 4° C. The pellets were suspended in phosphate-buffered saline (PBS) and subjected to 2 freeze-thaw cycles at −80° C. The suspensions were centrifuged at 105,000×g for 1 h at 4° C. The supernatants containing hAC were kept at −80° C. until use. Protein concentration was measured using the bicinchoninic acid (BCA) assay (Pierce).\nA hAC protein preparation (10 μg) was preincubated with inhibitors (final DMSO concentration 1%) in assay buffer (100 mM sodium phosphate, 0.1% Nonidet P-40, 150 mM NaCl, 3 mM DTT, 100 mM sodium citrate, pH 4.5) for 30 min at 37° C. Reactions were started by the addition of 50 μM N-lauroyl ceramide (Nu-Chek Prep, Elysian, Minn.) and carried on for 30 min at 37° C. Reactions were stopped by addition of a mixture of chloroform/methanol (2:1, vol/vol) containing 1 nmol 11-lauroleic acid (NuChek Prep). The organic phases were collected, dried under nitrogen and analyzed by UPLC/MS (Acquity, Waters) in the negative-ion mode monitoring the reaction product (lauric acid, m/z=199) using 11-lauroleic acid as internal standard.\nLipids were eluted on an Acquity UPLC BEH C18 column (50 mm length, 2.1 mm i.d., 1.7 μm pore size, Waters) column at 0.5 mL-min^−1 for 1.5 min with a gradient of acetonitrile (CH3CN) and water, both containing 0.25% acetic acid and 5 mM ammonium acetate (70% to 100% CH3CN in 0.5 min, 100% CH3CN for 0.5 min, 70% CH3CN for 0.4 min). The column temperature was 40° C. Electrospray ionization (ESI) was in the negative mode, capillary voltage was 1 kV and cone voltage was 50 V. Nitrogen was used as drying gas at a flow rate of 500 L/h and at a temperature of 400° C.\nThe [M-H]^− ion was monitored in the selected-ion monitoring mode (m/z values: lauric acid 199, 11-lauroleic acid […]). Calibration curves were generated with authentic lauric acid (Nu Check Prep). Inhibition of acid ceramidase activity was calculated as reduction of lauric acid in the samples compared to vehicle controls. IC50 values were calculated by non-linear regression analysis of log [concentration]/inhibition curves using GraphPad Prism 5 (GraphPad Software Inc., CA, USA) applying a standard slope curve fitting."}, "SW403 cells [2]": {"system": "SW403 cells", "assay": "SW403 cell viability, MTT assay", "format": "cell-based, human", "protocol": "(§1) Cells were seeded in 12- or 96-well plates in complete medium 24 hrs before treatment and then incubated for 24 hrs (single treatment) or 72 hrs (multiple treatments) with different drug concentrations in media without serum. Cell viability was then evaluated.\nAlternatively, cell viability was assessed measuring mitochondrial functionality by the MIT assay, which is based on the reduction of the soluble tetrazolium salt MTT [(3-(4,5-dimethylthiazol-2-yl)-2,5-diphenyltetrazolium bromide] into insoluble formazan by mitochondria. Briefly, after treatment, cells were washed with PBS and incubated with 0.5 mg/ml, MTT for 2 hrs at room temperature, MTT reduction was quantified by absorbance at 570 nm using a UV-visible plate reader."}, "SW403 cells [3]": {"system": "SW403 cells", "assay": "SW403 cell viability, trypan blue assay", "format": "cell-based, human", "conditions": "prolonged (72 hrs) treatment, concentration-response, FIGS. 2A and 2B", "protocol": "as §1\nThe trypan blue exclusion assay is based on the principle that viable cells have intact cell membrane and can therefore exclude the trypan blue dye. Cell viability was measured after 24 hrs incubation with the drug. Cells were harvested, centrifuged at 1200 rpm for 10 min and pellets re-suspended in PBS. To evaluate viability, cells were diluted 1:1 with 0.4% trypan blue dye (Sigma), incubated for 1 min and white (viable) cells were counted with a hemacytometer."}}}
{"smiles": "CCCCCCNC(=O)n1cc(Br)c(=O)[nH]c1=O", "note": "[Example 5, 5-bromo-N-hexyl-2,4-dioxo-pyrimidine-1-carboxamide]", "values": [{"measurement": "IC50", "setting": "[1]", "value": 35, "unit": "nM"}, {"measurement": "interaction with 5FU in reducing cell viability (MTT assay)", "setting": "SW403 cells [2]; 72 hrs, compound 30 μM + 5FU 300 nM", "value": "synergistic effect"}, {"measurement": "SW403 cell viability (MTT assay)", "setting": "SW403 cells [2]; sub-chronic treatment 72 hrs, compounds 30 μM, 5FU 300 nM", "value": "reduced cell viability"}, {"measurement": "SW403 cell viability (trypan blue assay)", "setting": "SW403 cells [3]", "value": "reduction of the viability"}]}
